Among the data in article PMC3276500, “Caffeic Acid Phenethyl Ester and Its Amide Analogue Are Potent Inhibitors of Leukotriene Biosynthesis in Human Polymorphonuclear Leukocytes” (PLoS ONE, 2012) are IC50 values, retold here.

This experiment deals with T1, 5-lipoxygenase (5-LO) (Homo sapiens, UniProt P09917).
T1 construct: gene ALOX5
T1 sequence (P09917 1-674): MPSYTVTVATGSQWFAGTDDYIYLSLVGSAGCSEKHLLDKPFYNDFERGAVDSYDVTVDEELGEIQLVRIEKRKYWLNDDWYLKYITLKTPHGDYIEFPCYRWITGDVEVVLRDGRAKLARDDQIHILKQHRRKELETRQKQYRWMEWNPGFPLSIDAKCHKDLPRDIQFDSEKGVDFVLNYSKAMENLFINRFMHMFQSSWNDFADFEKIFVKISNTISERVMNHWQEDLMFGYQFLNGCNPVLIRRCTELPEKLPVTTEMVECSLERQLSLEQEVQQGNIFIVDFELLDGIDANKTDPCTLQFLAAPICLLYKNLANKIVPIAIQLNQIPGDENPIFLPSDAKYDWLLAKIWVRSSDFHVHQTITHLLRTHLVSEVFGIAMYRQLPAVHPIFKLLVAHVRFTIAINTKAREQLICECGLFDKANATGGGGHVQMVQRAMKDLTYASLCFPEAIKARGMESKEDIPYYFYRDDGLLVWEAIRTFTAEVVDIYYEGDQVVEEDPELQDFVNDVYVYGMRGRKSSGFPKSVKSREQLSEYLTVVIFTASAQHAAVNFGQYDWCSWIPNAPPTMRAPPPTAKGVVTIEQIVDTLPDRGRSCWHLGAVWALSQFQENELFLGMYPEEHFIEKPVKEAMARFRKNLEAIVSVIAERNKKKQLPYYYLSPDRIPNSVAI
The experiment is described as follows: cell-free 5-LO activity assay in lysate supernatant of HEK293 cells stably transfected with 5-LO, RP-HPLC of products. In kind it is biochemical.

In general, IC50 refers to the point on the concentration scale where inhibition reaches its midpoint. The low end stands for greater potency, the high end for weaker potency.

Turning to `O=C(/C=C/c1ccc(O)c(O)c1)OCCc1ccccc1` [compound 1, CAPE], half-maximal inhibition (IC50) required 130 nM.
In turn, `O=C(/C=C/c1ccc(O)c(O)c1)NCCc1ccccc1` [compound 9] registered an IC50 of 2380 nM.
